These results are taken from US11833158B2, “Compositions comprising omega-3 fatty acids, 17-HDHA and 18-HEPE and methods of using same” (Solutex NA LLC, priority 2015, dated 2023).

The test system of this experiment is PMA-stimulated THP-1 cells. In words: Phagocytosis of opsonized zymosan bioparticles in PMA-stimulated THP-1 cells (fluorescence). It is filed as cell-based, human. Particulars: oils diluted 1/10^3; Mar-1 at 1 nM; 15 min pretreatment, 60 min incubation with zymosan. The protocol: To determine the capacity of promoting a macrophage pro-resolution phenotype (i.e. M2) and therefore to foster the resolution of inflammation, several oils were tested in a human macrophage model adapted by López Vicario C from a method previously described (Titos et al., 2011) and compared with Mar-1 (the term Maresins is coined from Macrophage mediator in resolving inflammation), an established active compound in resolution of the inflammation.
THP-1 cells were cultured in a 96-well black plate at a density of 3.5×10^4 cells/well in 200 μl RPMI 1640 medium (10% FBS). […]
The compounds tested in this macrophage model were: • Maresin 1 (from Cayman Chemicals) • LM03-1 (a total amount of Omega-3 of about 629.9 mg/g (as FFA), DHA in an amount of about 342.1 mg/g (as FFA), EPA in an amount of about 187.6 mg/g (as FFA), 17-HDHA in an amount of about 60.8 mg/kg and 18-HEPE in an amount of about 87.5 mg/kg with 1.4 mg/g of a mixed natural tocopherols—3624 EE (about 33.0% EPA ethyl ester and about 22% DHA in ethyl ester form expressed as FFA) • Omacor (about 42.5% EPA ethyl ester and about 34.5% DHA in ethyl ester form expressed as FFA)
The concentration of Mar-1 used in the experiment was 1 nM, which has been determined the concentration with maximum activity in phagocytic activation for this compound in previous experiments using this model (data not shown). […]

Regarding `CC/C=C\C/C=C\C[C@H](O)/C=C/C=C/C=C/[C@H](O)C/C=C\CCC(=O)O` [Maresin-1, 7R,14S-dihydroxy-4Z,8E,10E,12E,16Z,19Z-docosahexaenoic acid], the “phagocytic activity relative to Mar-1 (100% assigned to Mar-1 1 nM)” value is given as 100%.
